Legend:
ovoperoxidase = ovoperoxidase (Strongylocentrotus purpuratus, UniProt O44391); assay: CN--resistant NAD(P)H-O2 oxidoreductase (oxidase) activity of ovoperoxidase, thiol cofactor; assay type: biochemical; settings: for cofactor for the CN--resistant oxidase reaction: in place of ovothiol
Experimental: NAD(P)H--02 oxidoreductase activity was measured by following the oxidation of reduced pyridine nucleotides spectrophotometrically at 360 nm in a Gilford 420 spectrophotometer. The off-peak wavelength of 360 nm for reduced pyridine nucleotides allowed the use of higher concentrations in a 1.0 cm pathlength cuvette. Assays were conducted in a 1 ml volume containing 50 mM NaCl, 20mM Hepes, 20 mM Tris, at pH 8.0 and 25° C., to which was added for routine assays 0.4 mM NADH, 0.5 mM MnCl2, 1 mM NaCN, 134 nM ovoperoxidase, and the appropriate amount of ovothiol preparation. One unit of activity is defined as the amount of ovothiol needed to stimulate consumption of 1.0 nanomoles NADH/min. […] Assays were initiated with NADH unless otherwise specified.

[1] = Non-enzymic direct reaction of thiol with H2O2; assay type: physicochemical; settings: metal-free solutions containing EDTA; for second order rate constant for reaction with H2O2: non-enzymic
Experimental: The non-enzymic reaction of OSH and H2 02 was measured and compared with GSH reacting with H2 02.
These preliminary studies were done in metal-free solutions containing EDTA, so additional experiments can compare the effect of ions of Fe, Mn, and Cu, as well as certain liganded derivatives such as hematin and vitamin B12, on the reaction. […] Oxidation of ovothiol can be monitored by its absorbance change at 310 nm (Turner et al., 1986) and glutathione by coupling the reaction to glutathione reductase and NADPH oxidation.

[2] = Inhibition of pyrogallol autooxidation
Text: The inhibition of the air oxidation of pyrogallol has been used previously as an assay for superoxide dismutase (SOD) (Marklund, S., and G. Marklund, Eur. J. Biochem. 47:469, 1974; Roth, E. F. Jr., and H. S. Gilbert, Anal. Biochem. 137:50, 1984).

[3] = Trapping of tyrosyl radicals: photochemical dityrosine formation
Text: The known photochemical crosslinking of tyrosine (Amado, R., et al., Methods Enzymol. 107:377, 1984; Malencik, D. A., and S. R. Anderson, Biochem. 26:695, 1987; Joschek, H.-I., and S. I. Miller, J. Am. Chem. Soc. 88:3273, 1986) may be used as an assay for tyrosyl radical scavenging ability. This reaction proceeds by photochemical excitation of tyrosine, followed by an ejection of an electron to yield a tyrosyl radical. The ejected electron is apparently scavenged by oxygen, as evidenced by the augmentation of the tyrosine crosslinking rate on addition of SOD (scavenging 02^.-, thus slowing the back reaction of tyrosyl radical and 02^.- to yield tyrosine and 02). The tyrosyl radicals couple with one another to yield dityrosine, which is detected by its characteristic fluorescence. […] This is strong evidence that ovothiol can act as an efficient tyrosyl radical scavenger. This assay is mechanistically relatively simple technique for assaying antioxidants.

[4] = test system: xanthine/xanthine oxidase system; settings: cited from earlier work
[5] = Reduction of ovothiol disulfide (OSSO) by reduced glutathione; assay type: physicochemical
Experimental: The redox potential of ovothiol was determined, as were the kinetics for its interaction with glutathione and H2 02. The mid-point potential (E^o') was estimated indirectly by determining the equilibrium in reaction with other known thiol-disulfide equilibria, since direct determination of (E^o') for thiols is typically complicated by artifacts. […] Appropriate corrections were made for the mixed disulfides present at different concentrations of ovothiol and glutathione. E^o' (30^o) for ovothiol was 44 mV positive relative to glutathione, or -0.196 V. Thus, the ΔG^o' for the reduction of ovothiol disulfide (OSSO) by reduced glutathione (GSH) is […], so that at equilibrium reduced ovothiol (OSH) predominates in a mixture of equimolar oxidized ovothiol (OSSO) and reduced glutathione (GSH). From a thermodynamic point of view, ovothiol can be maintained almost entirely in the reduced state by GSH, and thus by NADPH via glutathione reductase, without the need for a specific ovothiol reductase. […] Because reduced glutathione reduces ovothiol, a functional ovothiol reductase reaction exists by coupling reactions and [6]. The second order rate constant for ovothiol reduction by glutathione is 88M^-1 S^-1. We calculate that egg glutathione reductase is sufficient to produce 4.1 pmol GSH/min; with an egg GSH content of 0.9 pmol, it would take only 13 seconds for the egg to regenerate its entire GSH content from GSSG, if NADPH were present (which it is after fertilization). […] In other words, reduction of ovothiol is rapid at the concentrations of glutathione and ovothiol of the egg, and an enzymatic "ovothiol reductase" is not required to catalyze reaction.

[6] = test system: fertilized sea urchin eggs; assay type: in vitro ADME
Experimental: First, the conditions under which ovothiols A or C are transported into the cells of interest are determined using radioactive ovothiol derivatives. For example, by reacting ovothiol A with ^3 H-formaldehyde and reduction by NaBH4, ovothiol A was converted into ^3 H-ovothiol C. […] The km for OSH uptake appears to be higher than for histidines, although the Vmax may be similar. We measure the kinetics of ovothiol uptake into the cells to be studied, in order to identify optimal conditions for transport. We no only use ^3 H-ovothiol C but also synthesize ^3 H-ovothiol A by using ^14 C--HCHO in the abovedescribed chemical synthesis procedure.

eggs = assay: Oxygen consumption by eggs; assay type: cell-based, sea urchin
Text: First, both ovothiol and NAD(P)H are intracellular metabolites, whereas ovoperoxidase is extracellular during the respiratory burst. […] Second, H2 02 is not released stoichiometrically by the ovoperoxidase-oxidase, so this cannot account for the significant concentrations of H2 02 previously detected at fertilization. Third, aminotriazole inhibits both the NAD(P)H oxidase and peroxidase activities of ovoperoxidase, yet has no effect on oxygen consumption by eggs.

sea urchin eggs [7] = assay: First cell division of sea urchin eggs after iodoacetamide treatment; assay type: cell-based; settings: for cell division: 0.25 mM iodoacetamide
Text: The following biological experiment further implicates ovothiol in protection of eggs from H2 02 produced during the respiratory burst. If ovothiol were important in protection, then its absence should lead to embryonic lethality. […] However, iodoacetamide might have reacted with critical proteins (or other components) required for cell division, so that experiment was not definitive in implicating ovothiol. More recently, we added exogeneous catalase to eggs derivatized with iodoacetamide. Catalase should act as a second mechanism for removing H2 02 and partially compensate for the iodoacetamide treatment. The first cell division was blocked for eggs treated with 1.0 mM iodoacetamide prior to the respiratory burst (7% cleavage vs. 90% of control eggs). With catalase present during the respiratory burst, 70% of IAA-treated eggs divided (and 90% of the controls). Pretreatment with 0.25 mM iodoacetamide decreased cleavage to 75%; with exogenous 0.1 mM H2 02 added, cell division occurred in only 2% of these eggs, and with catalase present in 90%. Control eggs (not treated with iodoacetamide) were unaffected by 0.1 mM H2 02.

[8] = Mid-point redox potential from equilibrium with glutathione thiol-disulfide; assay type: physicochemical; settings: 30°
Experimental: The redox potential of ovothiol was determined, as were the kinetics for its interaction with glutathione and H2 02. The mid-point potential (E^o') was estimated indirectly by determining the equilibrium in reaction with other known thiol-disulfide equilibria, since direct determination of (E^o') for thiols is typically complicated by artifacts. […] Appropriate corrections were made for the mixed disulfides present at different concentrations of ovothiol and glutathione. E^o' (30^o) for ovothiol was 44 mV positive relative to glutathione, or -0.196 V. Thus, the ΔG^o' for the reduction of ovothiol disulfide (OSSO) by reduced glutathione (GSH) is -0.386 kcal, so that at equilibrium reduced ovothiol (OSH) predominates in a mixture of equimolar oxidized ovothiol (OSSO) and reduced glutathione (GSH). From a thermodynamic point of view, ovothiol can be maintained almost entirely in the reduced state by GSH, and thus by NADPH via glutathione reductase, without the need for a specific ovothiol reductase. […] Because reduced glutathione reduces ovothiol, a functional ovothiol reductase reaction exists by coupling reactions and [6]. The second order rate constant for ovothiol reduction by glutathione is 88M^-1 S^-1. […]

[9] = test system: xanthine/xanthine oxidase system; assay: Xanthine oxidase-dependent oxyradical production, thiol oxidation; assay type: biochemical
Text: Xanthine oxidase with both acetaldehyde and xanthine as substrates (both xanthine and its product uric acid react with OH^.) are used to determine whether the aromatic thiols or glutathione are oxidized by this reaction, or whether they inhibit cytochrome C reduction (McCord, J. M., and I. Fridovich, J. Biol. Chem. 244:6049-6054, 1969; Crapo, J. D., et al, Methods in Enzymology 530:382-386, 1977). For example, the ovothiol analogue H3 is oxidized by the xanthine/xanthine oxidase system, and that this can be suppressed by up to 50% by addition of SOD. Since GSH is protected only 20% by SOD in this assay (Wefers, H., and H. Sies, Europ. J. Biochem. 137:2936, 1983; Ross, D., et al., Biochem. Biophys. Acta 841:278, 1983), this implies a higher reactivity of 4-mercaptohistidines toward 02^.-. Differences between the reactions with acetaldehyde and xanthine will implicate OH^. in the process.

[10] = Reduction of Fremy's salt nitroxide radical; settings: pH 7.0
Text: Fremy's salt (K^+- 03 SN(0^.)SO3^- K^+) is a stable, commercially available nitroxide radical. Reduction of this radical can be followed by UV or ESR. […] In this assay, a relatively large difference was seen between two aromatic thiols, H3 and thiophenol.

sea urchin eggs [11] = assay: Toxicity to sea urchin eggs (inhibition of first cellular division after fertilization); assay type: cell-based; settings: administered as the disulfide
Text: This aspect of the screening program introduces additional complications. For example, certain thiols are toxic to cells (Heinecke, J. W., et al., J. Biol. Chem. 262, 1987; Issels, R., et al., in Superoxide and Superoxide Dismutase in Chemistry, Biology, and Medicine, ed. G. Rotilio, pp. 419-421, Elsevier, N.Y., 1986) because they can autooxidize and produce reactive oxygen intermediates (Misra, H. R., J. Biol. Chem. 249:2151-2155,1974). Thiol toxicity may be due to redox cycling; for example, when cystine is given to cells it damages lipoproteins, apparently by being reduced to cysteine intracellularly then exiting to reoxidize and produce oxygen radicals and cellular damage. When we administered compound H3 (containing the reactive 4-mercaptoimidazole ring without the amino acid side chain) to sea urchin eggs, it was toxic at 2 mM but not at 200 μM (as assessed inhibition of the first cellular division after fertilization). […] We tried compound H3 because we thought it would be permeant, having no charged side chain; we administered it to these cells as the disulfide. We infer that the toxicity was caused by redox cycling, with H3 being taken up, reduced, and the thiol being reoxidized extracellularly to produce reactive oxygen intermediates. […]

cultured myoblasts = assay: Toxicity to cultured myoblasts (colony formation, 3H-TdR incorporation); assay type: cell-based; settings: administered as the disulfide

Chain of ovoperoxidase (O44391 entry or part of it): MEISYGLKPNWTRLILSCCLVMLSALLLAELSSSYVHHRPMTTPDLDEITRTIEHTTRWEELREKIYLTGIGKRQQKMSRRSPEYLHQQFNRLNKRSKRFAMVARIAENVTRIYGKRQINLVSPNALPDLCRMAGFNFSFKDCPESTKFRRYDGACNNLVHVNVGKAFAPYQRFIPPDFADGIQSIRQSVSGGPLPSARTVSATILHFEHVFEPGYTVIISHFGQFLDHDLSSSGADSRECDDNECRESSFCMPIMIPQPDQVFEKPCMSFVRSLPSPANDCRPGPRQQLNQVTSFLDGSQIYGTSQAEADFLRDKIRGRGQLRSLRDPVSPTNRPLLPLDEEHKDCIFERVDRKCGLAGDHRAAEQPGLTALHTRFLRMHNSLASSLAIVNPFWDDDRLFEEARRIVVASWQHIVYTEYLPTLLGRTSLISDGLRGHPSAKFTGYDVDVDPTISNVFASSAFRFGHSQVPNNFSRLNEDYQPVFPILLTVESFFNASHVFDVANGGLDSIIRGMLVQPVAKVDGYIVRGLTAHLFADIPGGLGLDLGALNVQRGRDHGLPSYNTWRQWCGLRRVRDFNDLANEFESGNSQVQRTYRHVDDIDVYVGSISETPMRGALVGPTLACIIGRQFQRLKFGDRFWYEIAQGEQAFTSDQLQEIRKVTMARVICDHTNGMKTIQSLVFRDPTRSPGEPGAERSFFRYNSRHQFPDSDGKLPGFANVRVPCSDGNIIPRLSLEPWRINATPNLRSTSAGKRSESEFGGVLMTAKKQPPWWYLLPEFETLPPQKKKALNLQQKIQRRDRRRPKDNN

With `C[N+](C)(C)[C@@H](Cc1c[nH]c(=S)[nH]1)C(=O)[O-]` [ergothioneine] the “cofactor for the CN--resistant oxidase reaction” value (from here on “cofactor”) (ovoperoxidase) was “could not be replaced by”.

With `N[C@@H](CCC(=O)N[C@@H](CS)C(=O)NCC(=O)O)C(=O)O` [GSH, glutathione] the “cofactor” value (ovoperoxidase) was “could not be replaced by”, the “second order rate constant for reaction with H2O2” value [1] was 1.5 M^-1 S^-1 and the “concentration needed for effect, relative to H3” value [2] was 50 fold. For the same compound, the “effect on air oxidation of pyrogallol” value [2] was “more modest inhibitory effect”, the “inhibition of photochemical dityrosine formation” value [3] was “at least an order of magnitude less effective” and the “protection by SOD in this assay” value [4] was 20%.

With `CN(C)[C@@H](Cc1c(SSc2ncn(C)c2C[C@@H](C(=O)O)N(C)C)ncn1C)C(=O)O` [OSSO] the “ΔG°' for reduction of ovothiol disulfide (OSSO) by reduced glutathione (GSH)” value [5] was -0.386 kcal and the “t1/2 for reduction of OSSO to OSH” value ([5]; normal cellular GSH levels) was 1.6 s.

For superoxide dismutase, the “inhibition of the NAD(P)H oxidase activity of ovoperoxidase” value (ovoperoxidase) was “inhibited”.

With `N[C@@H](Cc1c[nH]cn1)C(=O)O` [histidine] the “uptake by fertilized sea urchin eggs” value [6] was 38 fmol/egg/hr.

In the case of `Nc1nc[nH]n1` [aminotriazole], the “effect on oxygen consumption by eggs” value (eggs) is reported as “no effect”.

For `NC(=O)CI` [iodoacetamide], the cell division (sea urchin eggs [7]; 0.1 mM H2O2, catalase present) was 90%, the cell division (sea urchin eggs [7]; exogenous 0.1 mM H2O2 added) was 2% and the “cleavage (first cell division)” value (sea urchin eggs [7]; 1.0 mM iodoacetamide prior to respiratory burst) was 7%. It also gave an eggs divided (sea urchin eggs [7]; 1.0 mM iodoacetamide, catalase present during respiratory burst) of 70% and a cleavage (sea urchin eggs [7]; pretreatment with 0.25 mM iodoacetamide) of 75%.

In the case of `CN(C)[C@@H](Cc1c(S)ncn1C)C(=O)O` [ovothiol C, 1-methyl-N^α N^α -dimethyl-4-thiolhistidine], the “ovothiol concentration giving maximal oxidase activity” value (ovoperoxidase) is reported as 1 mM, the “E°' mid-point potential” value [8] is reported as -0.196 V and the “E°' relative to glutathione (positive)” value [8] is reported as 44 mV. The “second order rate constant for ovothiol reduction by glutathione” value [5] was 88 M^-1 S^-1, the “rate with H2O2 relative to reduced glutathione” value [1] was about 2.3 fold and the “second order rate constant for reaction with H2O2” value [1] was 3.34 M^-1 S^-1. The “second order rate constant for reaction with H2O2” value ([1]; listed as OSH) was 3.3 M^-1 S^-1, the “km for uptake compared with histidines” value [6] was “higher” and the “uptake by fertilized sea urchin eggs” value [6] was 6 fmol/egg/hr.

In the case of `N[C@@H](CS)C(=O)O` [cysteine], the “cofactor” value (ovoperoxidase) is reported as “could not be replaced by”.

In the case of `CC(C)(COP(=O)(O)OP(=O)(O)OC[C@H]1O[C@@H](n2cnc3c(N)ncnc32)[C@H](O)[C@@H]1OP(=O)(O)O)[C@@H](O)C(=O)NCCC(=O)NCCS` [Coenzyme A], the “cofactor” value (ovoperoxidase) is reported as “could not be replaced by”.

In the case of catalase, the “inhibition of the NAD(P)H oxidase activity of ovoperoxidase” value (ovoperoxidase) is reported as “inhibited”.

With `Cc1c(S)ncn1C` [H3, 1,5-dimethyl-4-mercaptoimidazole] the “oxidation by the xanthine/xanthine oxidase system” value [9] was “is oxidized”, the “suppression of oxidation by addition of SOD” value ([9]; xanthine/xanthine oxidase) was “up to 50%” and the “effect on air oxidation of pyrogallol” value [2] was “induces a time lag”. The “inhibition of photochemical dityrosine formation” value [3] was “strong inhibitor”, the “effect on dityrosine formation at 1 μM” value ([3]; 1 μM) was “slowing the reaction for several minutes” and the “rate of reduction of Fremy's salt relative to glutathione” value [10] was about 40 fold. The “rate of reduction of Fremy's salt relative to thiophenol” value [10] was “roughly ten-fold faster”, the “rate of reduction of Fremy's salt, rank” value [10] was “fastest radical scavenger” and the “toxicity to sea urchin eggs at 200 μM” value (sea urchin eggs [11]; 200 μM) was “not”. For the same compound, the “toxicity to sea urchin eggs at 2 mM” value (sea urchin eggs [11]; 2 mM) was “toxic”, the “colony formation of cultured myoblasts” value (cultured myoblasts; 200 μM) was “inhibited colony formation” and the IC50 (cultured myoblasts; Myoblast, cultured myoblasts, read-out: half-maximal effect on 3H-TdR incorporation) was 15 µM.

With `Sc1ccccc1` [thiophenol] the “effect on air oxidation of pyrogallol” value [2] was “similar, though not identical”.

Reference: patent publication US4898878A, “Antioxidant thiohistidine compounds” (priority 1987, dated 1990)
